Publication PMC11109052, “Metabolism characterization and toxicity of N-hydap, a marine candidate drug for lung cancer therapy by LC–MS method” (Natural Products and Bioprospecting, 2024)

Assays:
[1] = Stability in KPI solution (pH 7.4); format: physicochemical; conditions: for stability, Accuracy (Bias, %): KPI
Protocol: To verify the feasibility and reliability of the established method, studies on the linearity, accuracy, precision, and stability of N-hydap in potassium phosphate buffer (KPI, pH 7.4, were prepared by mixing KH2PO4 and K2HPO4 in corresponding proportions, and then adding NaOH and H3PO4 to pH 7.4), plasma, and tissue homogenate were carried out. The peak area ratios (analyte/IS) were plotted against the concentrations of the analytes prepared to obtain the calibration curves. Least squares linear regression analysis was used to determine the slopes, intercepts, and determination coefficients (R^2) which should be 0.99 or above of calibration curves. The standard curve equations were determined as y = 0.0001512x + 0.04394 (R^2 = 0.9980) for KPI, y = 0.001579x − 0.09233 (R^2 = 0.9923) for plasma, and y = 0.002271x + 0.03542 (R^2 = 0.9978) for tissue homogenate (Supplementary Fig. 1A–C).
The stability of the KPI solution was examined after storage at 4 °C for 24 h and incubation at 37 °C for 4 h, which was conducted using the QC samples at three concentrations (five samples for each concentration). Stability in plasma and tissue homogenate was assessed by testing samples stored at both 4 °C and room temperature for 24 h.

[2] = test system: Ugt1a9; assay: DME activity ex vivo in MLMs and MKMs: UGT1A9 (Prop-G from Prop); set-up: species or system mice; key to UGT1A9 Enzymatic activity: ↑: up-regulation; ↓: down-regulation; –: no change
Protocol: (§1) Mice were randomly divided into four groups, with eight animals in each group. The mice received oral pretreatment with N-hydap for 7 days at doses of 2, 5, and 10 mg/kg/day, which were considered as the low dose, medium dose, and high dose, respectively. Correspondingly, the control group received PBS. On the 8th day, the liver and kidneys were removed, and organs from eight mice per group were combined to prepare MLMs and MKMs using the detailed procedures above. Subsequently, we determined the activity of CYP and UGT enzymes by specific substrate metabolized with MLMs (0.5 mg/mL) and MKMs (0.2 mg/mL) in vitro. Specifically, the following selective substrates were used for the respective enzymes: PH (1 μM) for CYP1A2, DIC (1 μM) for CYP2C9, MP (90 μM) for CYP2C19, DM (1 μM) for CYP2D6, CZX (10 μM) for CYP2E1, Tes (1 μM) for CYP3A4, SN38 (1 μM) for UGT1A1, CACD (100 μM) for UGT1A3, Sero (20 μM) for UGT1A6, and Prop (1 μM) for UGT1A9. All substrates were dissolved in methanol or DMSO. The incubation procedure was carried out as mentioned above, and the reaction was terminated with VER (20 ng/mL) in ESI+ mode and CLP (200 ng/mL) in ESI− mode. In the ex vivo experiments, the activity of enzymes was measured by quantifying the production of various metabolites (nM/mg protein/min). The metabolites and their corresponding enzymes are as follows: APAP from PH, 4-OH-DIC from DIC, 4-OH-MP from MP, DXO from DM, 6-OH-CZX from CZX, 6-OH-Tes from Tes, SN38-G from SN38, CACD-G from CACD, Sero-G from Sero, Prop-G from Prop. The measurements were performed using multiple reaction monitoring (MRM) transitions, which are specific mass spectrometry transitions used for quantification. The optimized parameters for each metabolite, such as declustering potential and collision energy, were described in Supplementary Table 1. All experiments were conducted in triplicate, to ensure accuracy and reproducibility.

[3] = molecular target: T1, UGT1A1 (Homo sapiens, UniProt P22309); assay: Incubation with recombinant human UGT isoforms: UGT1A1; format: in vitro ADME; conditions: recombinant UGT 2 μg/mL
T1 construct: purchased Cypex (Scotland, UK)
T1 sequence (P22309 26-533): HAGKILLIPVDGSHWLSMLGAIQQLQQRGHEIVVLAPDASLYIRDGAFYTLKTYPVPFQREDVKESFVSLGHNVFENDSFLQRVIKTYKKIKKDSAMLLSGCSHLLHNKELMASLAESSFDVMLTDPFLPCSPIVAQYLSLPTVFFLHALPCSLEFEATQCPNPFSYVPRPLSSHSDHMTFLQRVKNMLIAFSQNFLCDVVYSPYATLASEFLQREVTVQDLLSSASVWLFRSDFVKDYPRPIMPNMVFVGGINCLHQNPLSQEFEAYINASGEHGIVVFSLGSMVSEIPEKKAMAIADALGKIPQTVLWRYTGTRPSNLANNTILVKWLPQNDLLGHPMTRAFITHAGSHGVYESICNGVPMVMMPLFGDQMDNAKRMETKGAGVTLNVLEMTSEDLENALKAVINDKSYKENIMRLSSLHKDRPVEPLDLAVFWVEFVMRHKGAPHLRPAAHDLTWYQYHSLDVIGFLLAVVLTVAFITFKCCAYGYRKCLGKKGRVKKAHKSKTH
Protocol: Incubation of N-hydap (2.5 μM) with eight recombinant human CYP enzymes (CYP1A2, CYP2B6, CYP2C9, CYP2C19, CYP2D6, CYP3A4, CYP4A11 and CYP4F2) at three enzyme concentrations (2, 4, and 20 μg/mL) was conducted following the same procedure as described above for microsomes. Subsequently, incubation with N-hydap (1, 2.5, and 6 μM) and twelve recombinant human UGT isoforms (UGT1A1, UGT1A3, UGT1A4, UGT1A6, UGT1A7, UGT1A8, UGT1A9, UGT1A10, UGT2B4, UGT2B7, UGT2B15 and UGT2B17) was performed, with the enzyme concentration used at 2 μg/mL. All reactions were carried out in triplicate.

[4] = test system: UGT1A3; assay: DME activity ex vivo in MLMs and MKMs: UGT1A3 (CDCA-G); set-up: species or system mice
Protocol: as §1, with “The incubation procedure was carried out as mentioned above, and the reaction was terminated with VER (20 ng/mL) in ESI+ mode and CLP (200 ng/mL) in ESI− mode.” left out, “The metabolites and their corresponding enzymes are as follows: APAP from PH, 4-OH-DIC from DIC, 4-OH-MP from MP, DXO from DM, 6-OH-CZX from CZX, 6-OH-Tes from Tes, SN38-G from SN38, CACD-G from CACD, Sero-G from Sero, Prop-G from Prop.” left out, “The optimized parameters for each metabolite, such as declustering potential and collision energy, were described in Supplementary Table 1. All experiments were conducted in triplicate, to ensure accuracy and reproducibility.” left out

[5] = test system: Ugt1a9; assay: Real-time PCR mRNA level after 7 days gavage: Ugt1a9; format: in vivo, mice; set-up: key to UGT1A9 mNA expression: ↑: up-regulation; ↓: down-regulation; –: no change
Protocol: as §1, with “The optimized parameters for each metabolite, such as declustering potential and collision energy, were described in Supplementary Table 1. All experiments were conducted in triplicate, to ensure accuracy and reproducibility.” left out
Total RNA from liver and kidney samples taken after 7 days of N-hydap gavage was extracted using the Animal Total RNA Isolation Kit (Foregene, Chengdu, Sichuan, China) following the manufacturer’s instructions. The concentrations of total RNA were determined by a nucleic acid concentration tester at 260/280 nm. […]

CC1CCC2C(C=CC(C)C2C(=O)c2c(O)c(C3(O)CCC(O)C4OC43)cn(O)c2=O)C1 (stereo not shown) [N-hydap, N-Hydroxyapiosporamide]
results of the stability experiments ([1]; KPI solution, plasma and tissue homogenate, all storage conditions): no significant degradation | stability, Accuracy (Bias, %) ([1]; 200 nM, 4℃ for 24h): 113.85% | stability, Accuracy (Bias, %) ([1]; 200 nM, 37℃ for 4h): 87.75% | stability, Accuracy (Bias, %) ([1]; 600 nM, 4℃ for 24h): 105.48% | stability, Accuracy (Bias, %) ([1]; 600 nM, 37℃ for 4h): 85.75% | stability, Accuracy (Bias, %) ([1]; 2500 nM, 4℃ for 24h): 104.40% | stability, Accuracy (Bias, %) ([1]; 2500 nM, 37℃ for 4h): 97.32% | UGT1A9 Enzymatic activity ([2]; Kidney): ↑ | UGT1A9 Enzymatic activity ([2]; Liver): ↓ | reduction of formation rate of Prop-G vs control ([2]; liver microsomes of mice pretreated 7 days p.o.): 47% | contribution of UGT1A1 to formation of N-hydap-G [3]: secondary contributors | elevation of formation rate of CDCA-G ([4]; MLMs and MKMs, range stated jointly for APAP, SN38-G, 6-OH-Tes and CDCA-G): 12%-331% | catalytic activity of UGT1A3 ([4]; after 7 days of oral administration): significantly increased | UGT1A9 mNA expression ([5]; Kidney): – | UGT1A9 mNA expression ([5]; Liver): – | mRNA levels of Ugt1a9 ([5]; mice, 2, 5, 10 mg/kg p.o. 7 days): No significant changes
